The subject of one data set is Staphylococcus aureus. Put plainly: MIC against ribosome-based resistance phenotypes. Type of data set: cell-based. To be noted: read-out: Minimum Inhibitory Concentration (MIC).
The test system of a further data set is all organisms. Put plainly: Agar dilution MIC, range over the isolates tested. Type of data set: cell-based. To be noted: read-out: agar dilution MICs for all organisms.
Data set [1] deals with mammalian cells (e.g., defense cells, macrophages, lung cells, and non-phagocytic cells). The note with it: cited from earlier work.

This is an account of results in US10471046B2, “Method for treating, preventing, or reducing the risk of skin infection” (Melinta Subsidiary Corp., priority 2014, dated 2019).

≈ marks a conversion by molar mass, not a printed value. Where two headings read alike, the source gives them in different places.

Take `CC(=O)NC[C@H]1CN(c2ccc(-c3ccc(CNCc4cnn[nH]4)cc3)c(F)c2)C(=O)O1` [Radezolid, (5S)—N-[3-(2-Fluoro-4′-{[(1H-[1,2,3]triazol-4-ylmethyl)-amino]-methyl}-biphenyl-4-yl)-2-oxo-oxazolidin-5-ylmethyl]-acetamide]: the MIC in the data set on Staphylococcus aureus (ATCC29213, Staphylococcus aureus ATCC29213, phenotype QC) is 1 µg/mL (≈ 2.28 µM); with Staphylococcus aureus (Staphylococcus aureus 01A1095, Mac-R), 1 µg/mL (≈ 2.28 µM); in the data set on Staphylococcus aureus (Staphylococcus aureus A7820, Lin-R (G2576U) + Mac-R (ErmC)), 16 µg/mL; in the data set with all organisms it was 0.06 to 1 µg/mL (≈ 0.137 to 2.28 µM). For the same compound, the “fraction accumulating in the cytosol of cells” value in data set [1] (cytosol) is “Approximately 60%”. Besides, the “fraction accumulating in the lysosome” value in data set [1] (lysosome) is recorded as “approximately 40%”. In addition, the “accumulation in mammalian cells, extent greater than linezolid” value in data set [1] (relative to linezolid) was 17 fold.
